From ChEMBL document CHEMBL1136133, “Discovery of the first series of inhibitors of human papillomavirus type 11: inhibition of the assembly of the E1-E2-Origin DNA complex” (Bioorg Med Chem Lett, 2003)

system: human papillomavirus 11; assay: Inhibition of the assembly of the (HPV11) Human Papillomavirus Type 11 E1E2 Origin DNA Complex; type: functional, organism-based

| IC50 | Compound |
| --- | --- |
| > 80 µM | O=C(Nc1ccc2c(c1)OCO2)[C@H]1C(c2ccc(Cl)cc2)OC2(C(=O)c3ccccc3C2=O)[C@H]1C(=O)O (stereo partly drawn) |
| 0.35 µM | O=C(Nc1ccc2c(c1)OCO2)[C@H]1[C@@H](c2ccc(Cl)c(Cl)c2)OC2(C(=O)c3ccccc3C2=O)[C@H]1C(=O)O |
| > 80 µM | O=C(Nc1ccc2c(c1)OCO2)[C@H]1[C@@H](c2ccccc2Cl)OC2(C(=O)c3ccccc3C2=O)[C@H]1C(=O)O |
| 7.8 µM | O=C(Nc1ccc2c(c1)OCO2)[C@H]1[C@@H](c2ccc(Cl)cc2)OC2(C(=O)c3ccccc3C2=O)[C@H]1C(=O)O |
| > 80 µM | O=C1[C@H]2[C@H](c3ccc(Cl)cc3)OC3(C(=O)c4ccccc4C3=O)[C@H]2C(=O)N1c1ccc2c(c1)OCO2 |
| 11 µM | O=C1C2C(c3ccc(Cl)cc3)OC3(C(=O)c4ccccc4C3=O)C2C(=O)N1c1ccc2c(c1)OCO2 (stereo not drawn) |
| 71 µM | O=C(Nc1ccc2c(c1)OCO2)[C@H]1[C@@H](c2ccccc2)OC2(C(=O)c3ccccc3C2=O)[C@H]1C(=O)O |
| 2.6 µM | O=C(Nc1ccc2c(c1)OCO2)[C@H]1[C@@H](c2cccc(Cl)c2)OC2(C(=O)c3ccccc3C2=O)[C@H]1C(=O)O |
